Reference: patent US20050196795A1, “Methods for diagnosing and treating bladder cancer” (priority 2004, published 2005)

Assays:
[1] = test system: Human bladder HT-1376 cells; assay: Caspase-3 activity in cell lysates of 48 h cultures (apoptosis); format: cell-based; settings: ANOVA, Newman-Keuls, p<0.05
Protocol: The reduction in cell proliferation seen with MIF inhibitor treatment could possibly be due to induction of apoptosis. To assess this we determined caspase-3 activity within the cell lysates of 48 h cultures.

[2] = test system: HT-1376 bladder epithelial cells; assay: MIF protein synthesis and secretion (cellular and secreted MIF); format: cell-based, human; settings: HT-1376 cells, in vitro treatment
Protocol: In order to establish the relevance of MIF to urogenital disease in humans we sought to determine if human bladder epithelial cells secrete MIF. Human bladder HT-1376 cells (ATCC, Manasas, Va.) were cultured for 48 hours and the culture medium was assayed for MIF using ELISA. In addition, intracellular content of MIF was assayed from cell lysates. These human bladder adenocarcinoma cells synthesize MIF ([…]). The average MIF concentration secreted into the medium by these cells was 15 ng/ml. Expression of MIF was confirmed by RT-PCR analysis. Thus establishing MIF secretion by human bladder epithelia.
Next, we determined if addition of MIF inhibitors in the culture media changed the synthesis or release of MIF by these cells.
A human MIF-specific “sandwich” ELISA technique was developed, based on the capture of MIF by immobilized monoclonal antibody (MAB289, R&D Systems) followed by detection with goat polyclonal anti-MIF affinity purified IgG (BAF289, R&D Systems). This assay was successfully used previously to detect MIF levels in serum and urine. This is another application of this protocol in which MIF levels are detected in urine for bladder cancer diagnosis and prognosis. Intravesical MIF inhibitors are a potential new treatment for bladder cancer. […]

HT-1376 cells = assay: Cytokine protein array analysis of secreted cytokines; format: cell-based, human
Protocol: MIF plays a key role in pro-inflammatory gene and cytokine expression. Therefore changes in MIF expression or protein content are likely to affect the expression of additional cytokines. This may in fact be a key in the utility of MIF inhibition in treating bladder adenocarcinoma. To test this, cytokine expression changes induced by MIF inhibition were also evaluated by cytokine protein array analysis (Ray Biotech, Norcross, Ga.), which detected secreted cytokines. […] A summary of the cytokine secretion changes (2 fold or greater) seen with MIF inhibition is described in Table 1.
HT-1376 cells express and secrete 65 of the 79 cytokines present on the array. The three types of MIF inhibition all affected the cytokine secretion patterns of these cells. In table 1, blank cells indicate no difference between the amounts of cytokine secreted by the treated and control cells. Arrows indicate an increase or decrease in the fold amount of cytokine secreted. […] Healon decreased the secreted amount of 27 cytokines.

[3] = fold vs control, ↓ decrease ↑ increase, Not detected = no longer detectable after treatment

## hyaluronan [Healon]
[1]
  caspase-3 activity: no significant increase
[2]
  decrease in secreted (extracellular) MIF: 2.8 fold
  increase in cellular MIF content: 2 fold
HT-1376 cells; 65 of the 79 cytokines on the array expressed
  number of secreted cytokines whose amount was decreased: 27
HT-1376 cells; [3]
  Secreted Cytokines: Ang: Not detected
  Secreted Cytokines: Ckβ 8-1: Not detected
  Secreted Cytokines: Eotaxin: Not detected
  Secreted Cytokines: Eotaxin-3: Not detected
  Secreted Cytokines: IGF-1: Not detected
  Secreted Cytokines: IL-1β: no affect
  Secreted Cytokines: MIF: Not detected
  Secreted Cytokines: MIP-3α: Not detected
  Secreted Cytokines: TNF-α: Not detected
